Columns and labels:
adenosine A2A receptor = adenosine A2A receptor (Homo sapiens (Human), UniProt P29274); test: A2A adenosine receptor radioligand binding competition assay (filter plates)
Experimental: Binding of selected compounds to the adenosine A2A, A1, A2B, and A3 receptors was tested using a binding competition assay.
The general protocol for the radioligand binding competition assay was as follows. Competition binding was performed in duplicate in the wells of a 96 well plate (Master Block, Greiner, 786201) containing binding buffer (optimized for each receptor), membrane extracts (amount of protein/well optimized for each receptor), radiotracer (final concentration optimized for each receptor), and test compound. Nonspecific binding was determined by co-incubation with 200-fold excess of cold competitor. The samples were incubated in a final volume of 0.1 mL at 25° C. for 60 minutes and then filtered over filter plates. Filters were washed six times with 0.5 mL of ice-cold washing buffer (optimized for each receptor) and 50 μL of Microscint 20 (Packard) were added on each filter. The filter plates were sealed, incubated 15 min on an orbital shaker and scintillation counted with a TopCount for 30 sec/filter.
(§1) For the A2A adenosine receptor radioligand binding assay, the following modifications were made to the general protocol. GF/C filters (Perkin Elmer, 6005174), presoaked in 0.01% Brij for 2 h at room temperature were used. Filters were washed six times with 0.5 mL of ice-cold washing buffer (50 mM Tris pH 7.4) and 50 μL of Microscint 20 (Packard) was added in each well. The plates were then incubated for 15 min on an orbital shaker and then counted with a TopCount™ for 1 min/well. Another radioligand binding assay was used to evaluate the binding affinity for the adenosine A2A receptor assay was performed in duplicate in the wells of a 384 plate. Assay buffer contained DPBS 500 mM, MgCl2 0.1 mM, and 1% DMSO. Membrane-bead suspension was prepared by mixing 25.98 μL of human adenosine A2A membrane preparation (Perkin Elmer, RBHA2AM400UA) at 33.4 μg/mL, 28 μL of ADA at 20 μg/mL, and 932 μL of SPA beads at 3.33 mg/mL) and incubated the mixture for 20 min at room temperature. Mixed 20 μL of radiotracer (^3H-SCH 58261) at 15 nM to each well containing test articles at various concentrations and centrifuge the plate at 1000 rpm for 1 minute. Added 30 μL of the membraine-bead suspension to each well. Sealed the plates and incubated for 1 hr at room temperature with vigorous mixing on a plate mixer. Plates were read on Microbeta^2 (Perkin Elmer, 2450-0010).

[1] = target: T1, HEK-293 cells expressing human recombinant adenosine A2A receptor (Homo sapiens (Human), UniProt P29274); test: cAMP assay, Assay 1 (HTRF kit); assay type: cell-based; details: HEK293, 100 nM, read-out: A2a cAMP (% inh @ 100 nM)
Experimental: (§2) The functional activity of compounds was tested using one of the two assays to detect the present of cAMP. Activation of G-protein coupled receptors (such as A2A) results in activation of adenylcyclase which converts ATP into cAMP which is used as a downstream signaling molecule. Therefore, molecules which act as GPCR (or specifically A2A receptor) antagonists cause a decrease in intracellular cAMP concentration.
(§3) Both assays used HEK-293 cells expressing human recombinant adenosine A2A receptor were grown prior to the test in media without antibiotic.
12 μL of cells were mixed with 6 μL of the test compound at increasing concentrations and then incubated for 10 min. Thereafter 6 μL of the reference agonist was added at a final concentration corresponding to the historical EC80. The plates were then incubated for 30 min at room temperature. After addition of the lysis buffer and 1 hour incubation, cAMP concentrations were estimated, according to the manufacturer specification, with the HTRF® kit.

[2] = target: human adenosine A2A membrane preparation (Homo sapiens (Human), UniProt P29274); test: Adenosine A2A receptor radioligand binding assay (SPA beads, 3H-SCH 58261, 384 plate); details: for inhibition at 3 µM: read-out: A2a binding % inh @ 3000 nM
Experimental: as §1

[3] = target: T1, HEK-293 cells expressing human recombinant adenosine A2A receptor; test: cAMP assay, Assay 2 (Eu-cAMP tracer / ULight-anti-cAMP); assay type: cell-based; details: Assay 2
Experimental: as §2, §3
Assay 2 (Table B2-2): 100 nL of test articles at 100× of final concentration were transferred to assay plate by Echo. Cells were washed twice with 5 mL of PBS […]. After aspirating the PBS and adding 1.5 mL versine, cells were incubated at 37° C. for 2-5 min. After centrifugation, 4 mL of medium was added and adjusted cell density to 5,000 cells/well with Stimulation Buffer. 10 μL of cells were aliquoted to the assay plate, centrifuged at 1000 rpm for 1 minute, and incubated for 60 minutes at room temperature. 5 μL 4×Eu-cAMP tracer solution and 5 μL 4×Ulight™-anti-cAMP solution were added to assay plate, followed by centrifugation and 60-minute incubation at room temperature. Plates were read on EnVision.

Chain of adenosine A2A receptor (P29274 whole entry): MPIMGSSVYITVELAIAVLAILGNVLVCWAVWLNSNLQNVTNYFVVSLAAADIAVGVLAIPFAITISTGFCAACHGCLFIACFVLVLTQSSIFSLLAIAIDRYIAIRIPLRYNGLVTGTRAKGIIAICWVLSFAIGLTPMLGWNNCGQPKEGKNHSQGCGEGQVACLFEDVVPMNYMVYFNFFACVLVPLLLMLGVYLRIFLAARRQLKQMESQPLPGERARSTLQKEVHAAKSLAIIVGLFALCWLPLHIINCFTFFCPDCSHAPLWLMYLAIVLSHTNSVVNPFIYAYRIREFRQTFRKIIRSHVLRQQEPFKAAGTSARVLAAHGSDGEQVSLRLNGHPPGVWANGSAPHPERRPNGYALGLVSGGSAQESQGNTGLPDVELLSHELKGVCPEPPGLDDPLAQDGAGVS
Chain of human adenosine A2A membrane preparation (P29274 whole entry): as above
T1 sequence (P29274 whole entry): as above

A2A radioligand binding competition assay % residual binding @ 300 nM (adenosine A2A receptor)	A2A radioligand binding competition assay % residual binding @ 3000 nM (adenosine A2A receptor)	inhibition at 0.1 µM [1]	Compound	other results
66%	12%	94%	Nc1cnc(-c2ccc3ncccc3c2)c(-c2ccccc2)n1 [Compound No. 1.12, 6-phenyl-5-(quinolin-6-yl)pyrazin-2-amine]	A2A radioligand binding competition assay % residual binding @ 1000 nM (adenosine A2A receptor): 12%
69%	18%	51%	Nc1cnc(-c2cc(Cl)c3[nH]cnc3c2)c(-c2ccccc2)n1 [Compound No. 1.13, 5-(7-chloro-1H-benzo[d]imidazol-5-yl)-6-phenylpyrazin-2-amine]	A2A radioligand binding competition assay % residual binding @ 100 nM (adenosine A2A receptor): 83%; A2A radioligand binding competition assay % residual binding @ 1000 nM (adenosine A2A receptor): 17%
–	104/ND/ND/ND %	0%	Nc1cnc(-c2ccc3ncccc3c2)c(-c2ccc(F)cc2)n1 [Compound No. 1.15, 6-(4-fluorophenyl)-5-(quinolin-6-yl)pyrazin-2-amine]	–
–	–	49%	Cc1nc2cc(-c3ncc(N)nc3-c3ccccc3)ccc2[nH]1 [1.9, 5-(2-methyl-1H-benzo[d]imidazol-5-yl)-6-phenylpyrazin-2-amine]	–
ND/ND/100/ND %	–	100%	Nc1cnc(-c2ccc(O)cc2)c(-c2ccccc2)n1 [Compound No. 1.7, 4-(5-amino-3-phenylpyrazin-2-yl)phenol]	–
–	39/ND/ND/ND %	24%	Nc1cnc(-c2ccc3ncccc3c2)c(-n2cccn2)n1 [Compound No. 1.22, 6-(1H-pyrazol-1-yl)-5-(quinolin-6-yl)pyrazin-2-amine]	–
–	8/ND/ND/ND %	99%	Nc1cnc(-c2cc(Cl)c3ncccc3c2)c(-c2ccccc2)n1 [Compound No. 1.17, 5-(8-chloroquinolin-6-yl)-6-phenylpyrazin-2-amine]	–
70%	39%	100%	Nc1cnc(-c2ccc3[nH]cnc3c2)c(-c2ccccc2)n1 [Compound No. 1.10, 5-(1H-benzo[d]imidazol-6-yl)-6-phenylpyrazin-2-amine]	A2A radioligand binding competition assay % residual binding @ 100 nM (adenosine A2A receptor): 77%; A2A radioligand binding competition assay % residual binding @ 1000 nM (adenosine A2A receptor): 64%
–	80/ND/ND/ND %	0%	Nc1cnc(-c2ccc3nccnc3c2)c(-c2ccccc2)n1 [Compound No. 1.16, 6-phenyl-5-quinoxalin-6-yl-pyrazin-2-amine]	–
–	–	47%	CC(C)(C)c1cc(-c2ncc(N)nc2-c2ccccc2)ccc1O [Compound No. 1.6, 4-(5-amino-3-phenylpyrazin-2-yl)-2-tert-butylphenol]	–
–	–	100%	Nc1cnc(-c2cc(Cl)c(O)c(Cl)c2)c(-c2ccccc2)n1 [Compound 1.2, 4-(5-amino-3-phenylpyrazin-2-yl)-2,6-dichlorophenol]	A2A radioligand binding competition assay % residual binding @ 100 nM (adenosine A2A receptor): ND/ND/ND/62%
ND/ND/126/ND %	–	100%	N#Cc1cc(-c2ncc(N)nc2-c2ccccc2)ccc1O [Compound No. 1.11, 5-(5-amino-3-phenylpyrazin-2-yl)-2-hydroxybenzonitrile]	–
–	–	1.4%	Nc1cnc(-c2ccc3[nH]ccc3c2)c(-c2ccccc2)n1 [Compound No. 1.4, 5-(1H-indol-5-yl)-6-phenylpyrazin-2-amine]	–
–	–	100%	CC(=O)Nc1cnc(-c2ccc(O)c(Cl)c2)c(-c2ccccc2)n1 [Compound 1.3, N-(5-(3-chloro-4-hydroxyphenyl)-6-phenylpyrazin-2-yl)acetamide]	A2A radioligand binding competition assay % residual binding @ 100 nM (adenosine A2A receptor): ND/ND/ND/57%
–	–	–	Nc1cnc(-c2ccc3ccccc3c2)c(-c2ccccc2)n1 [Compound No. 1.185, 5-(naphthalen-2-yl)-6-phenylpyrazin-2-amine]	inhibition at 3 µM [2]: 20%; inhibition at 0.1 µM ([3]; HEK293, 100 nM, read-out: A2a cAMP % inh @ 100 nM): 9%
–	–	–	Cc1ccn(-c2nc(N)c(C#N)nc2-c2ccc3ncccc3c2)n1 [Compound No. 1.290, 3-amino-5-(3-methyl-1H-pyrazol-1-yl)-6-(quinolin-6-yl)pyrazine-2-carbonitrile]	IC50 ([2]; Table B1-2): 3.3 nM; inhibition at 0.001 µM ([2]; read-out: A2a binding % inh @ 1 nM): 57%; inhibition at 0.01 µM ([2]; read-out: A2a binding % inh @ 10 nM): 85%; inhibition at 0.1 µM ([2]; read-out: A2a binding % inh @ 100 nM): 89%; inhibition at 1 µM ([2]; read-out: A2a binding % inh @ 1000 nM): 89%; IC50 [3]: 35.7 nM
–	–	–	Nc1cnc(-c2cc(Cl)c3ncccc3c2)c(-c2cc3ccccc3o2)n1 [Compound No. 1.278]	inhibition at 3 µM [2]: 95%; IC50 [3]: 304 nM
48%	12%	100%	Nc1nc(-c2ccccc2)c(-c2ccc3ncccc3c2)nc1Br [Compound No. 1.14, 3-bromo-6-phenyl-5-(quinolin-6-yl)pyrazin-2-amine]	A2A radioligand binding competition assay % residual binding @ 100 nM (adenosine A2A receptor): 76%; A2A radioligand binding competition assay % residual binding @ 1000 nM (adenosine A2A receptor): 29%

Compound	A2A radioligand binding competition assay % residual binding @ 300 nM (adenosine A2A receptor)	A2A radioligand binding competition assay % residual binding @ 3000 nM (adenosine A2A receptor)	inhibition at 0.1 µM [1]	other results
Cc1ccc(-c2nc(N)cnc2-c2ccc3ncccc3c2)o1 [Compound No. 1.20, 6-(5-methylfuran-2-yl)-5-(quinolin-6-yl)pyrazin-2-amine]	–	3/ND/ND/ND %	81%	–
N#Cc1nc(-c2ccc3ncccc3c2)c(-c2ccccc2)nc1N [Compound 1.19, 3-amino-5-phenyl-6-(quinolin-6-yl)pyrazine-2-carbonitrile]	–	4/ND/ND/ND %	100%	–
Nc1cnc(-c2ccc3ocnc3c2)c(-c2ccccc2)n1 [Compound No. 1.18, 5-(benzo[d]oxazol-5-yl)-6-phenylpyrazin-2-amine]	–	100/ND/ND/ND %	14%	–
Cc1ccc(-c2nc(N)cnc2-c2cc(Cl)c3ncccc3c2)o1 [Compound No. 1.21, 5-(8-chloroquinolin-6-yl)-6-(5-methylfuran-2-yl)pyrazin-2-amine]	–	5/ND/ND/ND %	100%	–
Nc1cnc(-c2ccc(O)c(Cl)c2)c(-c2ccco2)n1 [Compound No. 1.8, 4-(5-amino-3-(furan-2-yl)pyrazin-2-yl)-2-chlorophenol]	ND/ND/39/ND %	–	100%	–
